According to US20050069496A1, “Methods of screening, determining, developing and utilizing negative cross resistance toxins” (priority 2001, published 2005):
Where two headings read alike, the source gives them in different places. Marks after values point to notes of the source that are not given here.

Assays:
[1] = test system: Canton-S (DDT susceptible flies) and para^tsl (DDT resistant flies); test: Initial screen of DDT and 8 pyrethroids, Canton-S versus para^tsl flies; type: in vivo, Drosophila melanogaster; details: for Fly Line Preferentially Killed by the Toxin: across the doses
Protocol: A test was conducted utilizing an initial screen of DDT and 8 pyrethroids against Canton-S (DDT susceptible flies) and para^tsl (DDT resistant flies). […]

Canton-S flies = test: Fly mortality bioassay, Canton-S; type: in vivo, Drosophila melanogaster; details: for Resistance Ratio: Canton-S, LD50 over LD50 of para^tsl males
Protocol: (§1) A test was conducted utilizing an initial screen of DDT and 8 pyrethroids against Canton-S (DDT susceptible flies) and para^tsl (DDT resistant flies).
(§2) As a further step in the test, heterozygotes were tested with either deltamethrin or DDT.

heterozygous fly lines [2] = details: stated as known; cited from earlier work
para^tsl flies = test: Fly mortality bioassay, para^tsl; type: in vivo, Drosophila melanogaster; details: for Resistance Ratio: Para^tsl
Protocol: as §1, §2

heterozygous fly lines [3] = test: Fly mortality bioassay, heterozygotes; type: in vivo, Drosophila melanogaster
Protocol: as §2
An additional test was conducted to determine if DDT and deltamethrin applied at the same time killed the heterozygotes.
FIG. 17 graphically illustrates the application of deltamethrin by itself 220, the application of DDT by itself 222, and the application of both deltamethrin and DDT at the same time 224 to para^tsl flies, Canton-S flies, and heterozygotes.

[4] = test system: Mycosphaeralla graminicola Wild type and Tri R1 resistant strains; test: Cross-resistance comparison of resistant and wild type fungal lines; type: cell-based; details: for Resistance Ratio: Tri R1 resistant versus wild type; for Resistance Type: compared to resistance to Triadimenol, not tested statistically; for Possible Resistance Type: after Bonferroni correction
Excerpt: In one embodiment, large-scale screens are utilized to determine NCR toxins that can be used against fungicide resistance. For such a screen, there will be one of three outcomes: (1) positive cross-resistance, (2) neutral (no cross-resistance), and (3) negative cross-resistance. Table 3 illustrates the EC50 for each toxin as given on two lines of Mycosphaeralla graminicola. The EC50 is the effective concentration that will kill fifty percent of the organisms in a test population. One line is Triadimenol susceptible and the other line is resistant to this compound. An estimate is made of the nature of resistance of these two lines to nine other toxins. The resistance is defined as (i) positive cross-resistance, (ii) negative cross-resistance or (iii) no cross-resistance (neutral) as compared to the resistance to Triadimenol (1RS,2RS;1RS,2RS)-1-(4chlorophenoxy)-3,3-dimethyl-1-(1H-1,2,4-trizol-1-yl) butan-1-o. Such a comparison is useful in a large-scale screen for NCR toxins for fungicides.
Three of the compounds listed in Table 3 are indicated as potential NCR toxins (Triflumizole, Ferarimol, and Nuarimol). In one embodiment, screening resources are used efficiently, i.e. the potential for identifying false-positives is minimized, by focusing on investigating potential NCR toxins through a test with a correction factor, such as a Bonferroni correction. Alternatively, other correction factors can be used including, but not limited to, Duncan's method. […] Where differential toxicity occurs between the two fungal lines on a given toxin, a difference in toxicity between the two lines is determined. If the fungal line that was resistant to the first toxin (e.g. Triadimenol) is now more susceptible to the new toxin (e.g. Triflumizole, Ferarimol, or Nuarimol) potential NCR toxin pairs are identified.
Differences between toxins, in terms of NCR activity, may be indicated where such differences may not truly exist (type I error in statistical hypothesis testing). In the present example, the confidence interval is extended using, for example, Bonferroni correction, which is needed to control for false positives in detection of NCR toxins in large-screen tests. A NCR factor is declared if the second toxin requires a lower dosage to kill the resistant line as compared to the wild type fungal line or lines. The consequences of a failure to use Bonferroni correction normally results in higher numbers of false positives in a large-scale screen. Toxins that are selected on the basis of no correction may still be considered as putative NCR toxins, but deserving less consideration than those identified using the correction method. A Bonferroni correction is thus performed on the three putative NCR toxins (and the reference toxin) to determine if one of the toxins is a NCR factor.
Table 4 illustrates the Bonferroni corrected data (from Table 3 above) of the reference compound (Triadimenol) and the three putative NCR toxins for fungicide resistance. The correction was made based on four compounds tested, each with minimally five doses to calculate the effective concentration fifty (EC50).

TF-FVIIa complex = TF-FVIIa complex (Homo sapiens, UniProt P08709); details: Inhibitor concentration ± standard error; read-out: FX activation (IC50); cited from earlier work
Sequence of TF-FVIIa complex (P08709 213-466 limits assumed): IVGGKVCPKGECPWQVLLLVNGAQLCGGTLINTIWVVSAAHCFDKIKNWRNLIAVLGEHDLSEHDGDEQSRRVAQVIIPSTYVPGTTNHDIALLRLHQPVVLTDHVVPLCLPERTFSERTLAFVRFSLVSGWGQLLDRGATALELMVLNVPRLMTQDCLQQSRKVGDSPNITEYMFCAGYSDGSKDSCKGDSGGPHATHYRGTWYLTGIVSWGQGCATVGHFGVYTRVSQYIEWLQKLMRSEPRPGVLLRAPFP
Sequence of TF-FVIIa complex (P08709 61-212 limits assumed): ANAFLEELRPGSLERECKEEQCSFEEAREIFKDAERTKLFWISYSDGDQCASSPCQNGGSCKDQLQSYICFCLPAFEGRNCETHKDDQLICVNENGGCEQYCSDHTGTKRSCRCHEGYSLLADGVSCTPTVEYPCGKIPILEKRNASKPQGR
Sequence of TF-FVIIa complex (P13726 33-295 partner): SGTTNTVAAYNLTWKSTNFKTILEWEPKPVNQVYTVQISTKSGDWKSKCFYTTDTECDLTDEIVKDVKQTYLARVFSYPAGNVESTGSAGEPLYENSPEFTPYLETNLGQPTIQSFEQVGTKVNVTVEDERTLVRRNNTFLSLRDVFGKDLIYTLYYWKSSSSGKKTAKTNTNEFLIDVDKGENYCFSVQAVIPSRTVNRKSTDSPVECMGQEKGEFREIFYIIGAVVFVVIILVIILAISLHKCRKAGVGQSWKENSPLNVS

[5] = test system: Drosophila sodium channel, para, resistance mutation line; details: mutation not observed in nature; cited from earlier work

Q: With CC(C)[C@H](C(=O)O[C@H](C#N)c1cccc(Oc2ccccc2)c1)c1ccc(Cl)cc1 [Asana] as the molecule, how does the “Fly Line Preferentially Killed by the Toxin” value (“Fly Line Preferentially Killed” below) [1] read?
A: Neither

Q: For C=CCC1=C(C)C(OC(=O)C2C(C=C(C)C)C2(C)C)CC1=O [D-trans allethrin], which “Fly Line Preferentially Killed” value [1] is on record?
A: Neither

Q: Which “Percent Dead Cantons-S” value (Canton-S flies; Dose 0.2) does the source give for Clc1ccc(C(c2ccc(Cl)cc2)C(Cl)(Cl)Cl)cc1 [DDT] here?
A: 11.7%

Q: And the “Percent Dead Cantons-S” value (Canton-S flies; Dose 0.5)?
A: 8.3%

Q: And the “Percent Dead Cantons-S” value (Canton-S flies; Dose 1)?
A: 6.7%

Q: What about the “Percent Dead Cantons-S” value (Canton-S flies; Dose 2) of the same molecule?
A: 15.0%

Q: And the “Percent Dead Cantons-S” value (Canton-S flies; Dose 5)?
A: 35.0%

Q: What about the “Percent Dead Cantons-S” value (Canton-S flies; Dose 8) of the same molecule?
A: 48.3%

Q: What about the “Percent Dead Cantons-S” value (Canton-S flies; Dose 10) of the same molecule?
A: 43.3%

Q: And the “Percent Dead Cantons-S” value (Canton-S flies; Dose 15)?
A: 75.0%

Q: And the “Percent Dead Cantons-S” value (Canton-S flies; Dose 20)?
A: 71.7%

Q: What about the Resistance of heterozygotes (heterozygous fly lines [2]) of the same molecule?
A: heterozygotes are resistant to DDT

Q: And the “Fly Line Preferentially Killed” value [1]?
A: Canton-S

Q: And the “Percent Dead Para^tsl” value (para^tsl flies; Dose 0.2)?
A: 13.3%

Q: What about the “Percent Dead Para^tsl” value (para^tsl flies; Dose 0.5) of the same molecule?
A: 0%

Q: What about the “Percent Dead Para^tsl” value (para^tsl flies; Dose 1) of the same molecule?
A: 0%

Q: And the “Percent Dead Para^tsl” value (para^tsl flies; Dose 2)?
A: 3.3%

Q: What about the “Percent Dead Para^tsl” value (para^tsl flies; Dose 5) of the same molecule?
A: 6.7%

Q: What about the “Percent Dead Para^tsl” value (para^tsl flies; Dose 8) of the same molecule?
A: 23.3%

Q: What about the “Percent Dead Para^tsl” value (para^tsl flies; Dose 10) of the same molecule?
A: 13.3%

Q: What about the “Percent Dead Para^tsl” value (para^tsl flies; Dose 15) of the same molecule?
A: 8.3%

Q: And the “Percent Dead Para^tsl” value (para^tsl flies; Dose 20)?
A: 6.7%

Q: Which “Resistance Ratio” value (heterozygous fly lines [3]; Heterozygotes, Female, LD50 over LD50 of para^tsl males) does the source give for CC1(C)[C@H](C(=O)O[C@H](C#N)c2cccc(Oc3ccccc3)c2)[C@@H]1C=C(Br)Br [Deltamethrin] here?
A: 21.5

Q: And the Resistance of heterozygotes (heterozygous fly lines [3]; from Table 8)?
A: resistant to deltamethrin and resistance is dominant

Q: What about the “Resistance Ratio” value (Canton-S flies; Female) of the same molecule?
A: 24.7

Q: And the “Resistance Ratio” value (Canton-S flies; Male)?
A: 9.9

Q: And the “Percent Dead Cantons-S” value (Canton-S flies; Dose 0.2)?
A: 31.7%

Q: And the “Percent Dead Cantons-S” value (Canton-S flies; Dose 0.5)?
A: 56.7%

Q: What about the “Percent Dead Cantons-S” value (Canton-S flies; Dose 1) of the same molecule?
A: 26.7%

Q: And the “Percent Dead Cantons-S” value (Canton-S flies; Dose 2)?
A: 93.3%

Q: What about the “Percent Dead Cantons-S” value (Canton-S flies; Dose 5) of the same molecule?
A: 100%

Q: What about the “Percent Dead Cantons-S” value (Canton-S flies; Dose 8) of the same molecule?
A: 96.7%

Q: What about the “Percent Dead Cantons-S” value (Canton-S flies; Dose 10) of the same molecule?
A: 98.3%

Q: What about the “Percent Dead Cantons-S” value (Canton-S flies; Dose 15) of the same molecule?
A: 100%

Q: And the “Percent Dead Cantons-S” value (Canton-S flies; Dose 20)?
A: 98.3%

Q: What about the “Fly Line Preferentially Killed” value [1] of the same molecule?
A: Para^tsl

Q: What about the “Fly Line Preferentially Killed” value ([1]; listed as deltamethrin) of the same molecule?
A: more toxic to para^tsl flies than to Canton-S flies

Q: What about the “Preferential killing when tested by individual doses” value ([1]; individual doses) of the same molecule?
A: preferentially killed para^tsl flies

Q: What about the “Percent Dead Para^tsl” value (para^tsl flies; Dose 0.2) of the same molecule?
A: 98.3%

Q: What about the “Percent Dead Para^tsl” value (para^tsl flies; Dose 0.5) of the same molecule?
A: 100%

Q: What about the “Percent Dead Para^tsl” value (para^tsl flies; Dose 1) of the same molecule?
A: 85.0%

Q: And the “Percent Dead Para^tsl” value (para^tsl flies; Dose 2)?
A: 100%

Q: What about the “Percent Dead Para^tsl” value (para^tsl flies; Dose 5) of the same molecule?
A: 100%

Q: What about the “Percent Dead Para^tsl” value (para^tsl flies; Dose 8) of the same molecule?
A: 100%

Q: And the “Percent Dead Para^tsl” value (para^tsl flies; Dose 10)?
A: 98.3%

Q: And the “Percent Dead Para^tsl” value (para^tsl flies; Dose 15)?
A: 100%

Q: And the “Percent Dead Para^tsl” value (para^tsl flies; Dose 20)?
A: 100%

Q: What about the “Resistance Ratio” value (para^tsl flies; Female, LD50 over LD50 of para^tsl males) of the same molecule?
A: 1.4

Q: What about the “Resistance Ratio” value (para^tsl flies; Male, denominator line) of the same molecule?
A: 1.0*

Q: With CC(Cc1ccc(C(C)(C)C)cc1)CN1C[C@@H](C)O[C@@H](C)C1 (stereo partly shown) [Fenpropimorph] as the molecule, how does the “Resistance Ratio” value [4] read?
A: 0.9

Q: And the “Resistance Type” value [4]?
A: Neutral

Q: What does the source list for OC(c1ccc(Cl)cc1)(c1cncnc1)c1ccccc1Cl (stereo not shown) [Ferarimol]?
A: Resistance Ratio [4]: 0.3; Possible Resistance Type [4]: Negative; Resistance Type [4]: Negative

Q: With O=c1c2cc(F)ccc2nc(-n2cncn2)n1-c1ccc(Cl)cc1Cl [Fluquinconazole] as the molecule, how does the “Resistance Ratio” value [4] read?
A: 0.4

Q: And the “Resistance Type” value [4]?
A: Negative

Q: For C[Si](Cn1cncn1)(c1ccc(F)cc1)c1ccc(F)cc1 [Flusilazole], which “Resistance Ratio” value [4] is on record?
A: 4.2

Q: What about the “Resistance Type” value [4] of the same molecule?
A: Positive

Q: Which “Resistance Ratio” value [4] does the source give for C=CCOC(Cn1ccnc1)c1ccc(Cl)cc1Cl (stereo not shown) [Imazalil] here?
A: 5.0

Q: And the “Resistance Type” value [4]?
A: Positive

Q: Which “Resistance Ratio” value [4] does the source give for OC(c1ccc(F)cc1)(c1cncnc1)c1ccccc1Cl (stereo not shown) [Nuarimol] here?
A: 0.4

Q: And the “Possible Resistance Type” value [4]?
A: Negative

Q: And the “Resistance Type” value [4]?
A: Negative

Q: Which “Fly Line Preferentially Killed” value [1] does the source give for CC1(C)[C@H](/C=C(\Cl)C(F)(F)F)[C@@H]1C(=O)O[C@@H](C#N)c1cccc(Oc2ccccc2)c1 [PP321] here?
A: Neither

Q: Which “Fly Line Preferentially Killed” value [1] does the source give for Cc1c(F)c(F)c(COC(=O)[C@H]2[C@@H](/C=C(\Cl)C(F)(F)F)C2(C)C)c(F)c1F [PP993] here?
A: Canton-S

Q: For CC1(C)C(C=C(Cl)Cl)C1C(=O)OCc1cccc(Oc2ccccc2)c1 (stereo not shown) [Permethrin], which “Fly Line Preferentially Killed” value [1] is on record?
A: Para^tsl

Q: And the “Fly Line Preferentially Killed” value ([1]; listed as permethrin)?
A: more toxic to para^tsl flies than to Canton-S flies

Q: Which “Resistance Ratio” value [4] does the source give for CCCN(CCOc1c(Cl)cc(Cl)cc1Cl)C(=O)n1ccnc1 [Prochloraz] here?
A: 3.3

Q: What about the “Resistance Type” value [4] of the same molecule?
A: Positive

Q: With CC(C)=CC1C(C(=O)OCc2coc(Cc3ccccc3)c2)C1(C)C (stereo not shown) [Resmethrin] as the molecule, how does the “Fly Line Preferentially Killed” value [1] read?
A: Para^tsl

Q: For CC(C)(C)C(O)(CCc1ccc(Cl)cc1)Cn1cncn1 (stereo not shown) [Tebuconazole], which “Resistance Ratio” value [4] is on record?
A: 3.3

Q: And the “Resistance Type” value [4]?
A: Positive

Q: With CC1(C)C(C=C(Cl)Cl)C1C(=O)OC(C#N)c1ccc(F)c(Oc2ccccc2)c1 (stereo not shown) [Tempo] as the molecule, how does the “Fly Line Preferentially Killed” value [1] read?
A: Para^tsl

Q: Which “Resistance Ratio” value [4] does the source give for CC(C)(C)C(O)C(Oc1ccc(Cl)cc1)n1cncn1 (stereo not drawn) [Triadimenol, (1RS,2RS;1RS,2RS)-1-(4chlorophenoxy)-3,3-dimethyl-1-(1H-1,2,4-trizol-1-yl) butan-1-o] here?
A: 31

Q: With CCCOC/C(=N\c1ccc(Cl)cc1C(F)(F)F)n1ccnc1 [Triflumizole] as the molecule, how does the “Resistance Ratio” value [4] read?
A: 0.3

Q: What about the “Possible Resistance Type” value [4] of the same molecule?
A: Neutral (n.s.)†

Q: What about the “Resistance Type” value [4] of the same molecule?
A: Negative

Q: Which IC50 (TF-FVIIa complex) does the source give for “consensus sequence from the hard randomization, C (MEEWEVLCWTWETCERGEGQ), Z-domain fusion [C-Z]” here?
A: 5.9 ± 0.9 nM

B1: AaIT: a protein isolated from Scorpion toxin (protein, UniProt P01497 19-88, looked up)
Beta-insect excitatory toxin 1: KKNGYAVDSSGKAPECLLSNYCNNECTKVHYADKGYCCLLSCYCFGLNDDKKVLEISDTRKSYCDTTIIN
Q: Which “NCR in a resistance mutation line” value [5] does the source give for B1 here?
A: no NCR
